Test results: patent US10363305B2, “Anti-ganglioside compound for targeting cancer and generating antibodies” (REALIST PHARMA, INC., priority 2013, dated 2019)

Experiments:
Water solubility = format: physicochemical
Description: The carbohydrates were synthesized as described (Gilbert et al., 2002, J Biol Chem, 277: 327), by modification of the process for phenylthio-GD2 (Tong et al., 2010, Cehm Biol, 17: 183) in which the thio-phenyl analog originally reported was substituted with an p-aminophenyl-(β-D-lactopyranoside (AP-Lac), from Toronto Research Chemicals), for subsequent conjugation to the dendrimer (see below). AP-GD2 was water soluble (>20 mg/ml), and was purified to >99% purity by size-exclusion (Superdex 30 16 mm×85 cm column, GE Health Care). The measured molecular weight of AP-GD2 was 1218 g/mol and corresponded to expected values. Structures were verified by 1D and 2D NMR spectroscopy and mass spectrometry (EI-MS) (see FIGS. 2A and B).

EL4-GD2+ cells = experiment: Mixed lymphocyte reaction, 3H-thymidine incorporation, EL4-GD2+ stimulators; format: cell-based, mouse; details: EL4-GD2+ cells alone
Description: (§1) EL4-GD2^+ cells and control Jurkat cells were treated with 25 μg/ml Mitomycin (Sigma) for 1 hr to arrest their proliferation. After the cells were washed three times with media to remove Mitomycin, they were plated in 96-well plates at 2×10^5 cells/well. Single cell suspensions of splenocytes were obtained from twice immunized (as above) and from vehicle injected control mice. Cells were separated following the protocol of the EASYSEP™ magnet (Stem Cell Tech). […] The T cells were plated at a ratio of 10:1 with Mitomycin-treated EL4 or Jurkat cells. As controls, cultures of T cells alone (no stimulating tumor cells) or T cells treated with ConcanavilinA were used. After 5 days of culture, 0.1μCi/well ^3H-thymidine (Sigma-Aldrich) was added. DNA-incorporated ^3H-thymidine was counted by liquid scintillation, and data are reported as average cpm±sd.

Jurkat cells = experiment: Mixed lymphocyte reaction, 3H-thymidine incorporation, Jurkat stimulators; format: cell-based; details: Jurkat cells alone
Description: as §1

solubility (Water solubility)	SMILES	3H-thymidine incorporation of treated stimulator cells (EL4-GD2+ cells)	3H-thymidine incorporation of treated stimulator cells (Jurkat cells)
> 20 mg/mL	CC(=O)NC1C(OC2C(CO)OC(OC3C(CO)OC(Oc4ccc(N)cc4)C(O)C3O)C(O)C2OC2(C(=O)O)CC(O)C(NC(C)=O)C([C@H](O)C(CO)OC3(C(=O)O)CC(O)C(NC(C)=O)C([C@H](O)[C@H](O)CO)O3)O2)OC(CO)C(O)C1O (stereo partly drawn) [AP-GD2]		
	CO[C@@]12[C@H](COC(N)=O)C3=C(C(=O)C(C)=C(N)C3=O)N1C[C@@H]1N[C@@H]12 [Mitomycin]	188±4 cpm	107±5 cpm
